Where two headings read alike, the source gives them in different places.
Key:
human dendritic cells = assay: Cytokine production in human monocyte-derived dendritic cells (Luminex); format: cell-based; conditions: hDCs, 24 h
Description: Activated DCs were examined for the production of pro-inflammatory cytokines TNF-α, IL-6, and IL-12, which contribute to the modulation of the T cell response and innate effector functions.[57] The release of TNF-α and IL-6 reached nearly maximum levels (attained with 10 ng/mL LPS) at the α,α-GM-LAM 1 concentration of 1 ng/mL (Figure 7A).
Human peripheral blood monocytes were cultured for 6 days in GM-CSF and IL-4 to receive immature monocyte-derived DCs and were then stimulated with the indicated concentrations of 1 and 3 using 10 ng/mL LPS as positive control (solutions in PRMI containing 10% FCS and 0.005–0.01% DMSO). The amounts of IL-6, IL-12, IL-10, and TNF-α in the supernatants of the cells were analyzed after 24 h by Luminex. Results are representative of three independent experiments for 1 and of two experiments for 3. Mean values of duplicate examinations ± SD are presented.

[1] = Storage stability in aqueous solution (MALDI-TOF analysis); format: physicochemical; conditions: 4 °C, several months, free acids at the phosphates
Description: Next, the free 6-OH group in the hexaacylated disaccharides 57 and 58 was phosphorylated by reaction with dibenzyl-(N,N′-diisopropylamino)phosphoramidite in the presence of a mild acid catalyst, 1H-tetrazole, and subsequent oxidation with mCPBA at −78 °C to furnish the bisphosphorylated hexaacylated products 61 and 62 in 91% and 89% yield, respectively. Final debenzylation by hydrogenation of 57, 61, and 62 on Pd-black followed by purification with gel permeation chromatography on Sephadex SX1 in toluene–methanol (2:1) afforded target bisphosphorylated Lipid A mimetics 1 and 2 and a monophosphorylated counterpart 3.

[2] = target: hTLR4/hMD-2/CD14-transfected HEK293 cells (Homo sapiens, UniProt O00206+Q9Y6Y9); assay: hTLR4/MD-2/CD14-transfected HEK293 (HEK-Blue) activation assay, NF-κB-dependent SEAP reporter; format: cell-based; conditions: for concentration at which TLR4 saturation plateau was reached: NF-κB/SEAP dose response
Chain of hTLR4/hMD-2/CD14-transfected HEK293 cells (O00206 24-839): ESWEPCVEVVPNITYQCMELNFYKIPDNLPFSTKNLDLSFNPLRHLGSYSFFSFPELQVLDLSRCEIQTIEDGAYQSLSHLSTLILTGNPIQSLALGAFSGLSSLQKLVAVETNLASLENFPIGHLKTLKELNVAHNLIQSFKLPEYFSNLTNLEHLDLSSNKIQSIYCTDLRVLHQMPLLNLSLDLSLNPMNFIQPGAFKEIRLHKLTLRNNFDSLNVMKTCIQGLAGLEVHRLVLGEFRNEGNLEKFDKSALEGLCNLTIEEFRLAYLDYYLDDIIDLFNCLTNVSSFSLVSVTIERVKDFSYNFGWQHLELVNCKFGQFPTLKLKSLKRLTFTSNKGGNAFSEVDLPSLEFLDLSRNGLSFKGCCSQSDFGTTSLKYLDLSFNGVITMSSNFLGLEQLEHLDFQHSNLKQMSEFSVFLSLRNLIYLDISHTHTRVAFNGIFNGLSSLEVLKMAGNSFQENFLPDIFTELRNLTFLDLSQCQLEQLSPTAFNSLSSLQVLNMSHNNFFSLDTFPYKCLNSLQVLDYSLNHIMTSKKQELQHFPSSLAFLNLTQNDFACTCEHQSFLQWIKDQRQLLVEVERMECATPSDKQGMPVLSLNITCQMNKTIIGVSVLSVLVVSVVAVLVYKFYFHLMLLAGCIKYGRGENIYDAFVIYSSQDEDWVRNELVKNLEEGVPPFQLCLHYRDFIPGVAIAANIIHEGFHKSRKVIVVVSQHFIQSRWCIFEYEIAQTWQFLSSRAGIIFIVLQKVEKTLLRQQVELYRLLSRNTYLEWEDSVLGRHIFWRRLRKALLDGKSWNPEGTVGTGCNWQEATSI
Chain of hTLR4/hMD-2/CD14-transfected HEK293 cells (Q9Y6Y9 17-160 limits assumed): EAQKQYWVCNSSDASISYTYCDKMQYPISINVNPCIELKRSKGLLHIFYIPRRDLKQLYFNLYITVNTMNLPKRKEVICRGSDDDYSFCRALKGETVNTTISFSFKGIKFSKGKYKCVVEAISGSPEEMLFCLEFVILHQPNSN
Description: The propensity of the α,α-GM-LAMs 1–3 to stimulate TLR4-mediated immune signaling was first assessed in the hTLR4/hMD-2/CD14 transfected human embryonic kidney (HEK) 293 cells (HEK-Blue). Since we were particularly interested in the molecular recognition mechanisms implicated in the binding of LPS by the MD-2·TLR4 complex wherein the Lipid A/Re-LPS portion of LPS is exclusively involved, we evaluated the activities of α,α-GM-LAMs 1–3 compared to E. coliRe-LPS (Figure 1A). It has been previously shown that the minimum structural requirement for the expression of the highest cytokine-inducing potency resides in Re-LPS, which entails two 3-deoxy-D-manno-oct-2-ulosonic acid (Kdo) residues in addition to Lipid A (Supporting Information, SI-Figure 1A).[54],[55] Moreover, the Re-LPS has a defined molecular weight (MW) similar to the MW range for Lipid A mimetics (1.8–2.2 kDa), in contrast to wild-type LPS having variable MW (10–15 kDa), so that the direct comparison of a dose-dependent response between compounds 1–3 and Re-LPS is more appropriate. The TLR4-stimulating activity of Lipid A mimetics 1–3 was examined over a wide concentration range by monitoring of the activation of the NF-κB regulated signal transduction pathway via measuring the induction of secreted embryonic alkaline phosphatase (SEAP) and compared to the responses elicited by E. coliRe-LPS and SM-MPLA.
Growth conditions and activation assay were set as recommended by InvivoGen. The cells were stimulated with the solutions of compounds 1–3 or LPS/Re-LPS in DMEM supplemented by 10% FCS at the indicated concentrations. […] The compounds were added in a total volume of 20 μL to 25000 HEK-Blue hTLR4 cells in 180 μL plates and were incubated for 20–24 h at 37 °C and 5% CO2. SEAP levels were determined by incubation of 20 μL of challenged cell supernatants with 180 μL of detection reagent (QUANTI-Blue), and the color development was measured at 650 nm using a spectrophotometer (SpectraMAX 190). Data were combined from n = 3 independent experiments; error bars indicate standard error of the mean.
Supplementary SI-Figure 1
E. coli Re-LPS E. coli O111:B4
SI-Figure 1. (A) Dose-dependent activation of TLR4 signaling in hTLR4/hMD-2/hCD14 transfected HEK293 cells (HEK-Blue) by E. coli Re-LPS compared to E. coli O111:B4 LPS. [nM] concentrations were calculated from [ng/ml] concentrations based on the following molecular weights (MW): MWE. coli Re-LPS 2339 Da, MWE. coli O111:B4 LPS 10000 Da. (B) Dose-dependent activation of TLR4 signaling in hTLR4/hMD-2/hCD14 transfected HEK293 cells (HEK-Blue) by Lipid A mimetics 1- 3 compared to E. coli Re-LPS and S. minnesota MPLA. Non-linear curve fit (variable slope) was calculated using GraphPad Prism and is shown for the mean curves. Dotted lines indicate corresponding Ec50 values. Statistical analysis was performed on non-linear curve fits on individual datasets using an un-paired two-tailed t-test (*** indicates a p value < 0.001, ns indicates non-significant change). Top, bottom, hill slope and Ec50 values of non-linear curve fit on individual datasets are shown. […]

[3] = SEAP induction, 20–24 h, mean curve, nM calculated from ng/ml via MW, read-out: EC50 NF-κB activation
[4] = SEAP induction, mean curve, read-out: Ec50 (ng/ml) (converted)
[5] = dataset n1, read-out: Ec50 (ng/ml), non-linear curve fit on individual dataset (converted)
[6] = dataset n2, read-out: Ec50 (ng/ml), non-linear curve fit on individual dataset (converted)
[7] = dataset n3, read-out: Ec50 (ng/ml), non-linear curve fit on individual dataset (converted)

EC50 [2, 3]	EC50 [2, 4]	Bottom of non-linear curve fit ([2]; dataset n1)	HillSlope of non-linear curve fit ([2]; dataset n1)	Top of non-linear curve fit ([2]; dataset n1)	EC50 [2, 5]	Bottom of non-linear curve fit ([2]; dataset n2)	HillSlope of non-linear curve fit ([2]; dataset n2)	Top of non-linear curve fit ([2]; dataset n2)	EC50 [2, 6]	Bottom of non-linear curve fit ([2]; dataset n3)	HillSlope of non-linear curve fit ([2]; dataset n3)	Top of non-linear curve fit ([2]; dataset n3)	EC50 [2, 7]	SMILES	stability on storage in aqueous solution [1]	concentration at which TLR4 saturation plateau was reached [2]	also measured
0.08 nM	0.0804 nM	0.216	1.193	1.330	0.0884 nM	0.232	1.250	1.319	0.0827 nM	0.236	1.246	1.320	0.0758 nM	CCCCCCCCCCCCCC(=O)O[C@H](CCCCCCCCCCC)CC(=O)O[C@@H]1[C@@H](NC(=O)C[C@@H](CCCCCCCCCCC)OC(=O)CCCCCCCCCCC)[C@@H](O[C@H]2O[C@H](COP(=O)(O)O)[C@@H](OC(=O)C[C@@H](CCCCCCCCCCC)OC(=O)CCCCCCCCC)[C@H](O)[C@@H]2OC)O[C@H](CO)[C@H]1OP(=O)(O)O [Compound 2, 4-O-[(R)-3-(Decanoyloxy)tetradecanoyl]-2-O-methyl-6-O-phosphoryl-α-mannopyranosyl-(1↔1)-2-deoxy-2-[(R)-3-(dodecanoyloxy)tetradecanoylamino]-4-O-phosphoryl-3-O-[(R)-3-(tetradecanoyloxy)tetradecanoyl]-α-D-glucopyranoside]	without any noticeable sign of degradation	1 ng/mL	fold increase of TLR-4 stimulating activity on shortening lipid side chain at Man C-4 by 2×CH2 ([2]; 2 compared with 1): 5 fold
31 nM	30.8 nM	0.217	1.120	1.425	30.5 nM	0.221	1.170	1.426	28.2 nM	0.216	1.145	1.453	34.1 nM	CCCCCCCCCCCCCC(=O)O[C@H](CCCCCCCCCCC)CC(=O)O[C@@H]1[C@@H](NC(=O)C[C@@H](CCCCCCCCCCC)OC(=O)CCCCCCCCCCC)[C@@H](O[C@H]2O[C@H](CO)[C@@H](OC(=O)C[C@@H](CCCCCCCCCCC)OC(=O)CCCCCCCCCCC)[C@H](O)[C@@H]2OC)O[C@H](CO)[C@H]1OP(=O)(O)O [Compound 3, 4-O-[(R)-3-(Dodecanoyloxy)tetradecanoyl]-2-O-methyl-α-D-mannopyranosyl-(1↔1)-2-deoxy-2-[(R)-3-(dodecanoyloxy)tetradecanoylamino]-4-O-phosphoryl-3-O-[(R)-3-(tetradecanoyloxy)tetradecanoyl]-α-D-glucopyranoside]			release of TNF-α, IL-6, and IL-10 compared to 1 (human dendritic cells): less efficient; activation profile compared to SM-MPLA ([2]; at concentrations above 10 ng/mL): more potent activation profile than SM-MPLA

SMILES	EC50 [2, 3]	EC50 [2, 4]	Bottom of non-linear curve fit ([2]; dataset n1)	HillSlope of non-linear curve fit ([2]; dataset n1)	Top of non-linear curve fit ([2]; dataset n1)	EC50 [2, 5]	Bottom of non-linear curve fit ([2]; dataset n2)	HillSlope of non-linear curve fit ([2]; dataset n2)	Top of non-linear curve fit ([2]; dataset n2)	EC50 [2, 6]	Bottom of non-linear curve fit ([2]; dataset n3)	HillSlope of non-linear curve fit ([2]; dataset n3)	Top of non-linear curve fit ([2]; dataset n3)	EC50 [2, 7]	stability on storage in aqueous solution [1]	concentration at which TLR4 saturation plateau was reached [2]	also measured
CCCCCCCCCCCCCC(=O)O[C@H](CCCCCCCCCCC)CC(=O)O[C@@H]1[C@@H](NC(=O)C[C@@H](CCCCCCCCCCC)OC(=O)CCCCCCCCCCC)[C@@H](O[C@H]2O[C@H](COP(=O)(O)O)[C@@H](OC(=O)C[C@@H](CCCCCCCCCCC)OC(=O)CCCCCCCCCCC)[C@H](O)[C@@H]2OC)O[C@H](CO)[C@H]1OP(=O)(O)O [Compound 1, 4-O-[(R)-3-(Dodecanoyloxy)tetradecanoyl]-2-O-methyl-6-O-phosphoryl-α-D-mannopyranosyl-(1↔1)-2-deoxy-2-[(R)-3-(dodecanoyloxy)tetradecanoylamino]-4-O-phosphoryl-3-O-[(R)-3-(tetradecanoyloxy)tetradecanoyl]-α-D-glucopyranoside]	0.4 nM	0.424 nM	0.212	1.282	1.369	0.505 nM	0.225	1.341	1.312	0.352 nM	0.215	1.257	1.348	0.421 nM	without any noticeable sign of degradation	5 ng/mL	concentration at which release of TNF-α and IL-6 reached nearly maximum levels (attained with 10 ng/mL LPS) (human dendritic cells): 1 ng/mL; expression of IL-12 (human dendritic cells): efficiently induced
